For assay [1], the target named is serotoninergic 5-HT7 receptor (Homo sapiens, UniProt P34969). In words: Binding assay 5-HT7 (h), [3H]LSD, CHO cells. Also on record: expressed in transfected cells; host or cells: CHO cells. Conditions: read-out: 5-HT7. In short, it runs like this: (§1)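 Specific ligand binding was taken as total minus non-specific binding, with the latter defined in the presence of surplus unlabelled ligand. Each compound was tested at a single 1×10^−6 M concentration.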

The target in assay [2] is T1, dopaminergic D3 receptor (Homo sapiens, UniProt P35462). Briefly: Binding assay D3 (h), [3H]methyl-spiperone, CHO cells. The conditions noted are these: read-out: D3 [%]. Details: expressed in transfected cells; host or cells: CHO cells. An outline of the steps: as §1
T1 sequence (P35462 whole entry): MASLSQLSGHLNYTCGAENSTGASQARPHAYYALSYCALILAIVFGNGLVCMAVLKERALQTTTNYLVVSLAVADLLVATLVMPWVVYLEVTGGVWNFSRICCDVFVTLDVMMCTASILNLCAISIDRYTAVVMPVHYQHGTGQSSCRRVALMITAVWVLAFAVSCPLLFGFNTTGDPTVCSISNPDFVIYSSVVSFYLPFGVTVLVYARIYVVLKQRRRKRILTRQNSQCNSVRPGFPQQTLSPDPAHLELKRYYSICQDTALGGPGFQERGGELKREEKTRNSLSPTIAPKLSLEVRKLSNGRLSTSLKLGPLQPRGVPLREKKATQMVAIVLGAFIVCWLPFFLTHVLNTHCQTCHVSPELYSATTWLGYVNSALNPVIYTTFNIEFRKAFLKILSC
Assay [3] deals with T2, serotonine transporter (SERT) receptor (Homo sapiens, UniProt P31645).
T2 construct: expressed in transfected cells; host or cells: CHO cells
T2 sequence (P31645 whole entry): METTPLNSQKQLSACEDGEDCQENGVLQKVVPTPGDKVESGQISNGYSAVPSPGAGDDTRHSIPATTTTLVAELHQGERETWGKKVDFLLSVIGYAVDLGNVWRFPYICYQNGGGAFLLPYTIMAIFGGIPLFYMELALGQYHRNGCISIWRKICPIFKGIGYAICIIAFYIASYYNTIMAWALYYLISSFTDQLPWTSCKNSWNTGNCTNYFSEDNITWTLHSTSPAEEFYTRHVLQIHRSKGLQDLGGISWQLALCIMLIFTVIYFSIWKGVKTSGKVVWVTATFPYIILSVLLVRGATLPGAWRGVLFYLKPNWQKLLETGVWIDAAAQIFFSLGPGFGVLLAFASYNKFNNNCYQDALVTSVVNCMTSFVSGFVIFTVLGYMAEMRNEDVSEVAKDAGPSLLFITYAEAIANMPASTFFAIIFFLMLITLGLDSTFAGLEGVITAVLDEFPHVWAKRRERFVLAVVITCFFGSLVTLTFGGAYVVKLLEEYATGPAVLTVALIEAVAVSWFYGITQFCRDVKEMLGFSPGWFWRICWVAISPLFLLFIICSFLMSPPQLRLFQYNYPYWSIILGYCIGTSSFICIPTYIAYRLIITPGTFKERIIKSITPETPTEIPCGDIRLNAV
In words: Binding assay SERT (h), [3H]imipramine, CHO cells. The conditions noted are these: read-out: SERT [%]. In short, it runs like this: as §1

Assay [4] concerns the target T3, serotoninergic 5-HT2A receptor (Homo sapiens, UniProt P28223). In words: Binding assay 5-HT2A (h), [3H]ketanserin, HEK-293 cells. Details: expressed in transfected cells; host or cells: HEK-293 cells. The conditions noted are these: read-out: 5-HT2A. An outline of the steps:
as §1

In assay [5] the target is T4, serotoninergic receptor 5-HT2C (Homo sapiens, UniProt P28335).
T4 construct: expressed in transfected cells; host or cells: HEK-293 cells
T4 sequence (P28335 33-458): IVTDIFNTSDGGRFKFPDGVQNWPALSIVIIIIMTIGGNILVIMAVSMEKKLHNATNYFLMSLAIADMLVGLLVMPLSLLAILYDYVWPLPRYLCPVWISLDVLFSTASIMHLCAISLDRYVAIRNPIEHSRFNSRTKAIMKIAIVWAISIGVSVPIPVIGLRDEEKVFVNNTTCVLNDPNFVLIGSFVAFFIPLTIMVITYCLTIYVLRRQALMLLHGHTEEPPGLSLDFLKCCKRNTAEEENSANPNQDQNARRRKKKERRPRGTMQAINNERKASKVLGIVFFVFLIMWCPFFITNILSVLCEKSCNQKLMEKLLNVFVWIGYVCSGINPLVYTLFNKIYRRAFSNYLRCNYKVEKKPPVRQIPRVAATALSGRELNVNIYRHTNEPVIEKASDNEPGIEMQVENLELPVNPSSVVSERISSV
In words: Binding assay 5-HT2C (h), [3H]mesulergine, HEK-293 cells. Conditions: read-out: 5-HT2C [%]. In short, it runs like this: as §1

Assay [6] addresses T5, serotoninergic 5-HT6 receptor (Homo sapiens, UniProt P50406). In words: Binding assay 5-HT6 (h), [3H]LSD, CHO cells. The conditions noted are these: read-out: 5-HT6. Also on record: expressed in transfected cells; host or cells: CHO cells. An outline of the steps:
as §1

A further assay relates to adrenergic α1 receptor. In words: Binding assay α1 (non-selective), [3H]prazosin, rat cerebral cortex. The conditions noted are these: percent inhibition of control specific binding; compounds tested at 1×10^−6 M. An outline of the steps: as §1
Assay [7] deals with T5, serotoninergic 5-HT6 receptor. Briefly: Cellular functional assay, serotoninergic 5-HT6 receptor (agonism/antagonism). Conditions: for inhibition at 1 µM: read-out: 5-HT6-antag. [%]; for activation at 1 µM: agonist effect, percent of control specific agonist response, compounds tested at 1×10^−6M, read-out: 5-HT6-ag [%]. In kind it is cell-based. How it is done:
(§2) The compounds were tested at the concentration of 1×10^−6M.
(§3) In the Tables ag refers to agonism, and antag to antagonism).

Assay [8] concerns the target T3, serotoninergic 5-HT2A receptor. In words: Cellular functional assay, serotoninergic 5-HT2A receptor (agonism/antagonism). Conditions: for activation at 1 µM: read-out: 5-HT2A -ag [%]; for inhibition at 1 µM: read-out: 5-HT2A -antag [%]. In kind it is cell-based. As for the experimental part:
[…]. The compounds were tested at the concentration of 1×10^−6M.
Conditions and methodology (by reference to the literature) of cellular functional assays are given in Table 13 and the tests results for representative compounds are given in Table 14 (dopaminergic receptor D2), in Table 15 (dopaminergic receptor D3), in Table 16 (serotoninergic receptor 5-HT1A), in Table 17 (serotoninergic receptor 5-HT2A), in Table 18 (serotoninergic receptor 5-HT6), in Table 19 (serotoninergic receptor 5-HT7), in Table 20 (adrenergic α1 receptor), in Table 21 (adrenergic α2C receptor), in Table 22 (histaminergic H1 receptor) and in Table 23 (serotoninergic 5-HT2C receptor). In the Tables ag refers to agonism, and antag to antagonism).

Assay [9] addresses T1, dopaminergic D3 receptor. Briefly: Cellular functional assay, dopaminergic D3 receptor (agonism/antagonism). In kind it is cell-based. Conditions: for inhibition at 1 µM: CHO, read-out: D3-antag. [%]; for activation at 1 µM: agonist effect, percent of control specific agonist response (300 nM dopamine for control), 1×10^−6 M, D3 (h), CHO cells, read-out: D3-ag [%]. As for the experimental part: as §2, §3

Assay [10] addresses T6, serotoninergic 5-HT1A receptor (Homo sapiens, UniProt P08908).
T6 sequence (P08908 1-422): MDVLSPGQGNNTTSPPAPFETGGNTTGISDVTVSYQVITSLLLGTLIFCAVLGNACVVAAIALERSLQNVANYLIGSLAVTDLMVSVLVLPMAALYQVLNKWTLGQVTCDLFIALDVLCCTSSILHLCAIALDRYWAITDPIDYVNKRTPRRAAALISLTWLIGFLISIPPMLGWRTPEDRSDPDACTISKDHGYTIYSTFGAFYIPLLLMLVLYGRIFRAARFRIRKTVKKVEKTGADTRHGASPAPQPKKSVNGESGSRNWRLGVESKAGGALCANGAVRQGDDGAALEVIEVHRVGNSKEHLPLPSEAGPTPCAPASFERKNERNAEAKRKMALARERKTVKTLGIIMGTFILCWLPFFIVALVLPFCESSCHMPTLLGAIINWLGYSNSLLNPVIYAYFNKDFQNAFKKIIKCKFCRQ
In words: Cellular functional assay, serotoninergic 5-HT1A receptor (agonism/antagonism). In kind it is cell-based. The conditions noted are these: for inhibition at 1 µM: CHO, read-out: 5-HT1A-antag. [%]; for activation at 1 µM: agonist effect, percent of control specific agonist response (100 nM 8-OH-DPAT for control), 1×10^−6 M, 5-HT1A (h), CHO cells, read-out: 5-HT1A-ag [%]. As for the experimental part: as §2, §3

Molecules are shown by their SMILES.

The values below come from US8822517B2, “Arylosulfonamides for the treatment of CNS diseases” (Adamed SP. Z O.O., priority 2010, dated 2014).

Chain of serotoninergic 5-HT7 receptor (P34969 whole entry): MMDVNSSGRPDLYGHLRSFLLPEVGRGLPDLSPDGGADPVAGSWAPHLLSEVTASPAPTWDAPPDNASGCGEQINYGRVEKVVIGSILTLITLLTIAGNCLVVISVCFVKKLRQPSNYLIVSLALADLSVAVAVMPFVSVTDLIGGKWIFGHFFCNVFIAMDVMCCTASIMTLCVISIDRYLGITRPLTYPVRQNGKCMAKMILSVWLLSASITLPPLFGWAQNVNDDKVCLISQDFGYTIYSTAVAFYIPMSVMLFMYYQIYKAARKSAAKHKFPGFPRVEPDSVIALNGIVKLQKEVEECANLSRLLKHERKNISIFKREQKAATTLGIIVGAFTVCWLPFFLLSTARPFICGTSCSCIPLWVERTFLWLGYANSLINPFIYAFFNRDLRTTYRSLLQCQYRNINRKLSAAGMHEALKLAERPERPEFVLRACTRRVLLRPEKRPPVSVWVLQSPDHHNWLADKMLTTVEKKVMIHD
T3 sequence (P28223 whole entry): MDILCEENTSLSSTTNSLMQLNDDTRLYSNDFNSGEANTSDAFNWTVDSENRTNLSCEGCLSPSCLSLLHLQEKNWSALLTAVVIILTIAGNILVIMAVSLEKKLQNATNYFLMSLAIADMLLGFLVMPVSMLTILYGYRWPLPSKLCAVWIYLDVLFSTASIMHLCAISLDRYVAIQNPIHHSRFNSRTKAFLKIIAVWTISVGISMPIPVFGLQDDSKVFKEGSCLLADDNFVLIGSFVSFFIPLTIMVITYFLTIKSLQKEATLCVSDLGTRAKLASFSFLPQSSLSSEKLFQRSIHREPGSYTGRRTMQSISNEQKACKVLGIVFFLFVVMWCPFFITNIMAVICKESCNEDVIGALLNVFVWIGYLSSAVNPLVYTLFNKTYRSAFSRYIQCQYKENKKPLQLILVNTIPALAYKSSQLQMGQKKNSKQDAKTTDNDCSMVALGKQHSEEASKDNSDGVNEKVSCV
T5 sequence (P50406 whole entry): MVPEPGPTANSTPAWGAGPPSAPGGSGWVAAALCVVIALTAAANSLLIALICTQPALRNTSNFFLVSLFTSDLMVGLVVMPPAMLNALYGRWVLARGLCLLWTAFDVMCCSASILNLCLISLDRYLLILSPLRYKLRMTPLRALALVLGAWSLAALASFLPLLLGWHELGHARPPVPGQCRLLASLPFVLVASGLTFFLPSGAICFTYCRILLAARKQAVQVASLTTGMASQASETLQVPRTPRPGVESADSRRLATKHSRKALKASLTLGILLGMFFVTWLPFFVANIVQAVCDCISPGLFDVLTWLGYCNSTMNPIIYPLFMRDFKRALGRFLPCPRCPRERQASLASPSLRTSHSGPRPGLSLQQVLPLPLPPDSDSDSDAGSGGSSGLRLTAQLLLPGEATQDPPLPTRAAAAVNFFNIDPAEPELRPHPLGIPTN

`Cc1cccc(S(=O)(=O)NCCCCN2CCN(c3nsc4ccccc34)CC2)c1` [Compound 3, N-(4-(4-(1,2-Benzothiazol-3-yl)piperazin-1-yl)butyl)-3-methylbenzenesulphonamide]: the inhibition at 1 µM in assay [1] was 97%; on dopaminergic D3 receptor [2], 98%; in assay [3], 57%; in assay [4], 100%; in [5] it was 77%; in [6] it was 83%. Moreover, the inhibition at 1 µM in assay [7] is 22%. Moreover, in the assay on adrenergic α1 receptor, the “α1 [%]” value came to 100%.
As for `O=S(=O)(NCCCCN1CCN(c2noc3ccccc23)CC1)c1cccc2ccccc12` [Compound 13, N-(4-(4-(1,2-Benzoxazol-3-yl)piperazin-1-yl)butyl)naphthalene-1-sulphonamide], the inhibition at 1 µM stood at 100% in assay [1]; 100% in [8]; 92% at dopaminergic D3 receptor [2]; 7% in assay [3]; 100% in [4]; 34% in assay [5]. Also, the inhibition at 1 µM is 96% in assay [6] and 56% in [7]. Further, the activation at 1 µM was determined as 2% in assay [8] and 1% in assay [7]. Besides, the “α1 [%]” value in the assay with adrenergic α1 receptor is given as 102%.
As to `O=S(=O)(NCCCCN1CCN(c2noc3ccccc23)CC1)c1ccc2ccccc2c1` [Compound 14, N-(4-(4-(1,2-Benzoxazol-3-yl)piperazin-1-yl)butyl)naphthalene-2-sulphonamide], the inhibition at 1 µM in assay [1] was 99%; in assay [8] it was 100%; at dopaminergic D3 receptor [9], 92%; on dopaminergic D3 receptor [2] it was 97%; in assay [3], 3%; in [4], 100%. For the same molecule, the inhibition at 1 µM amounted to 51% in assay [5], 99% in [6] and 69% in [7]. Further, the activation at 1 µM in [8] is 1%; on dopaminergic D3 receptor [9], -15%; in [7] it was 1%. The “α1 [%]” value in the assay on adrenergic α1 receptor is 102%.
For `O=S(=O)(NCCCCN1CCC(c2noc3cc(F)ccc23)CC1)c1ccc2ccccc2c1` [Compound 18, N-[4-[4-(6-Fluoro-1,2-benzoxazol-3-yl)piperidin-1-yl]butyl]naphthalene-2-sulphonamide], the inhibition at 1 µM came to 98% in assay [1]; 102% in assay [8]; 114% on dopaminergic D3 receptor [9]; 98% on dopaminergic D3 receptor [2]; 39% in [3]; 100% in assay [4]. Further, the results for the inhibition at 1 µM in assay [5], in [6] and in assay [7] were 73%, 100% and 87%, respectively. Also, the values for the activation at 1 µM (in assay [8]; on dopaminergic D3 receptor [9]; in [7]) were -1%, -27% and 1%, respectively.
Regarding `O=S(=O)(NCCCCN1CCN(c2cccc3[nH]ccc23)CC1)c1ccccc1` [Compound 27, N-{4-[4-(1H-Indol-4-yl)piperazin-1-yl]butyl}benzenesulphonamide], the inhibition at 1 µM is 92% in assay [1]; 96% at dopaminergic D3 receptor [2]; -3% in assay [3]; 62% in [4]; -1% in assay [5]; 34% in [6]. For the same molecule, the inhibition at 1 µM in [10] was found to be 48%. The “α1 [%]” value in the assay with adrenergic α1 receptor is given as 96%. In addition, in assay [10], the activation at 1 µM came out at 56%.
For `O=S(=O)(NCCCCN1CCN(c2cccc3[nH]ccc23)CC1)c1cnc2ccccn12` [Compound 30, N-{4-[4-(1H-Indol-4-yl)piperazin-1-yl]butyl}-imidazo[1,2-a]pyridine-3-sulphonamide], the inhibition at 1 µM in assay [1] was 96%; on dopaminergic D3 receptor [9], 35%; at dopaminergic D3 receptor [2] it was 98%; in assay [3], 14%; in [4] it was 67%; in [5] it was 11%. The inhibition at 1 µM is 5% in assay [6] and 86% in assay [10]. Moreover, the activation at 1 µM at dopaminergic D3 receptor [9] came to 52%; in assay [10] it was 22%. Besides, the “α1 [%]” value with adrenergic α1 receptor is given as 96%.
Consider `O=S(=O)(NCCCCN1CCN(c2noc3ccccc23)CC1)c1c[nH]c2ncccc12` [Compound 89, N-[4-[4-(1,2-Benzoxazol-3-yl)piperazin-1-yl]butyl]-1H-pyrrolo[2,3-b]pyridine-3-sulphonamide], for which the inhibition at 1 µM in assay [1] was determined as 98%; in [8], 94%; on dopaminergic D3 receptor [9] it was 69%; on dopaminergic D3 receptor [2], 95%; in assay [3] it was 2%; in assay [4], 99%. Besides, the inhibition at 1 µM turned out to be 34% in assay [5], 94% in [6] and 83% in assay [7]. The activation at 1 µM in assay [8] is -2%; on dopaminergic D3 receptor [9], -18%; in assay [7], 0%. Also, the “α1 [%]” value with adrenergic α1 receptor was determined as 98%.
Turning to `O=S(=O)(NCCCCN1CCN(c2cccc3[nH]ccc23)CC1)c1cccc(Cl)c1` [Compound 113, N-[4-[4-(1H-Indol-4-yl)piperazin-1-yl]butyl]-3-chlorobenzenesulphonamide], the inhibition at 1 µM was 97% in assay [1]; 30% on dopaminergic D3 receptor [9]; 99% on dopaminergic D3 receptor [2]; 28% in assay [3]; 69% in assay [4]; 10% in assay [5]. For the same molecule, the inhibition at 1 µM in assay [6] is 74%; in assay [10], 92%. Further, the activation at 1 µM is 39% on dopaminergic D3 receptor [9] and 32% in assay [10]. Further, the “α1 [%]” value with adrenergic α1 receptor came to 99%.
For `O=S(=O)(NCCCCN1CCC(c2noc3cc(F)ccc23)CC1)c1cc2ccccc2s1` [Compound 312, N-[4-[4-(6-Fluoro-1,2-benzoxazol-3-yl)piperidin-1-yl]butyl]benzothiophene-2-sulphonamide], the inhibition at 1 µM was found to be 97% in assay [1]; 98% in assay [8]; 97% on dopaminergic D3 receptor [9]; 97% on dopaminergic D3 receptor [2]; 35% in assay [3]; 99% in [4]. In addition, the inhibition at 1 µM was found to be 80% in [5], 98% in assay [6] and 76% in assay [7]. The activation at 1 µM is -2% in [8], 10% at dopaminergic D3 receptor [9] and -1% in assay [7]. For the same molecule, the “α1 [%]” value in the assay on adrenergic α1 receptor turned out to be 100%.
